Earlier results as cited in EP3315966A1, “STANDARD THYROID GLAND HORMONE SOLUTION” (Fujirebio Inc., priority 2015, dated 2017).

Settings: buffer substance of the standard solution

For `O=S(=O)(O)CCCNC1CCCCC1` [CAPS, N-cyclohexyl-3-aminopropanesulfonic acid], the pKa is listed as 10.4.
